Results reported in US5489604A, “2-saccharinylmethyl aryl and aryloxy acetates useful as proteolytic enzyme inhibitors and compositions and method of use thereof” (Sterling Winthrop, Inc., priority 1994, dated 1996).

Biological target: T1, human leukocyte elastase (HLE) (Homo sapiens, UniProt P08246)
T1 sequence (P08246 30-267): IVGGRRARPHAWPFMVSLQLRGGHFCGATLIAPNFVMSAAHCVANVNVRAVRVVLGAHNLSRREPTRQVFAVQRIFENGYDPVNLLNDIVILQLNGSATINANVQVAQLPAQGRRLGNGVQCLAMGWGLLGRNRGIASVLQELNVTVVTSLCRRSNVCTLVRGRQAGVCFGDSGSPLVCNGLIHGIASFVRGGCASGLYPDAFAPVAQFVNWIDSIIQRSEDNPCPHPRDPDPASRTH
Test: inhibition of human leukocyte elastase (HLE): rate of inactivation kon and inhibition constant Ki* (koff/kon)
Format: biochemical
Conditions: for Ki: not truly reversible, ratio of rate of reactivation to rate of inactivation of the enzyme, read-out: K*i (inhibition constant Ki * = koff /kon); for kon: rate of inactivation kon of enzymatic activity, values are Kon × 10^-3
Method: Thus, instead of measuring a Ki, a Ki * is calculated which is defined as the ratio of the koff /kon, the rate of reactivation of the enzyme to the rate of inactivation of the enzyme. The values of koff and kon are measured and Ki * is then calculated.
The rate of inactivation, kon, of enzymatic activity was determined for the compounds tested by measuring the enzyme activity of an aliquot of the respective enzyme as a function of time after addition of the test compound. […] The rate of inactivation is then equal to [formula] where [I] is the concentration of the inhibiting compound.
The reactivation constant, koff, is similarly determined, and the inhibition constant, Ki *, is then calculated as […]

Row | Structure (SMILES) | Ki [nM] | kon [M⁻¹ s⁻¹]
1 | COc1cc(C(C)C)c2c(c1)S(=O)(=O)N(COC(=O)[C@@H](OC)c1ccccc1)C2=O [Example 1K] | 0.09 | 102000
2 | COc1cc(C(C)C)c2c(c1)S(=O)(=O)N(COC(=O)C(C)(O)c1ccccc1)C2=O (stereo not shown) [Example 1J] | 0.12 | 77700
3 | CC(C)(Oc1ccccc1Cl)C(=O)OCN1C(=O)c2ccccc2S1(=O)=O [Example 1C] | 14.4 | 4100
4 | CC(C)(Oc1ccc(Cl)cc1)C(=O)OCN1C(=O)c2ccccc2S1(=O)=O [Example 1B] | 14.5 | 4000
5 | CC(C)c1cccc2c1C(=O)N(COC(=O)C(C)(C)Oc1ccc(Cl)cc1)S2(=O)=O [Example 1E] | 0.6 | 38000
6 | CC(C)c1cccc2c1C(=O)N(COC(=O)C(C)(C)c1ccccc1)S2(=O)=O [Example 1D] | 1 | 23000
7 | CC(C)c1cccc2c1C(=O)N(COC(=O)C(O)c1ccccc1)S2(=O)=O (stereo not shown) [Example 1G] | 0.26 | 88500
8 | COC(C(=O)OCN1C(=O)c2c(C(C)C)cccc2S1(=O)=O)c1ccccc1 (stereo not shown) [Example 1H] | 0.3 | 80000
9 | CC(C)(C(=O)OCN1C(=O)c2ccccc2S1(=O)=O)c1ccccc1 [Example 1A] | 18 | 3500
10 | CC(C)c1cccc2c1C(=O)N(COC(=O)C(C)(C)Oc1ccccc1Cl)S2(=O)=O [Example 1F] | 0.8 | 29000
11 | COc1cc(C(C)C)c2c(c1)S(=O)(=O)N(COC(=O)[C@H](OC)c1ccccc1)C2=O [Example 1I] | 0.08 | 118000
